# Measured values as given in paper PMC11110795, “Design, synthesis and antimycobacterial activity of imidazo[1,5-a]quinolines and their zinc-complexes” (RSC Medicinal Chemistry, 2024).
# Where two headings read alike, the source gives them in different places.
# Legend:
# [1] = system: Staphylococcus aureus ATCC33592; assay: MIC, microtiter turbidity test; assay type: cell-based; details: read-out: MIC Sa
# [2] = system: Escherichia coli ATCC35218; assay: MIC, microtiter turbidity test; assay type: cell-based
# [3] = system: Septoria tritici MUCL45408; assay: MIC, BacTiter-Glo ATP quantification; assay type: cell-based; details: read-out: MIC Str
# [4] = system: Mycobacterium tuberculosis H37Ra; assay: MIC, BacTiter-Glo ATP quantification, surrogate Mtb strain; assay type: cell-based; details: for MIC Mtb: Mycobacterium tuberculosis H37Ra, 7H9-palmitate, 7 days, BacTiter-Glo, n=3; for MIC: Mycobacterium tuberculosis, H37RA, 168 h, read-out: MIC Mtb, Mycobacterium tuberculosis H37Ra, 7H9-palmitate, 7 days, BacTiter-Glo, n=3
# Experimental: The antimicrobial effect of the 21 synthesized compounds was initially accessed against a panel of 4 microbial indicator strains (Escherichia coli ATCC35218, Staphylococcus aureus ATCC33592, Septoria tritici MUCL45408 and Mycobacterium tuberculosis H37Ra). Cytotoxicity was investigated using an epithelia cell line from human lung carcinoma (Calu-3).
# The minimum inhibitory concentration (MIC) of the […] compounds 5a-i, 6a-b,7a, 8a and C1-8 was determined as previously described with only minor changes. 6,7 Briefly, the cell density of an overnight cultures of Escherichia coli ATCC35218 and Staphylococcus aureus […] was diluted to 5 × 10^5 cells/mL in cation adjusted Mueller Hinton II medium (Becton Dickinson, Sparks, NV, USA) and distributed into 96-well plates. Three 12-point dilution series of rifampicin, tetracycline and gentamicin ranging from 64 - 0.03 µg/mL (all Sigma Aldrich, St. Louis, MO, USA), respectively, were used as positive controls. All tested compounds were dissolved in dimethyl sulfoxide (DMSO, Carl Roth GmbH + Co., Karlsruhe, Germany) and tested in triplicate at the same concentrations as the positive controls.
# Bacterial suspensions without test compound or positive control were used as negative controls.
# Medium background was averaged from 5 replicates. Assay incubation was done at 37°C, 180rpm and 85% relative humidity. The turbidity of each well was measured with a microplate spectrophotometer at 600 nm (LUMIstar® Omega BMG Labtech, Ortenberg, Germany). Growth inhibition was calculated relative to the absorption of the controls.
# For S. tritici MUCL45408, a previously prepared spore solution was used to adjust the assay inoculum to 1 × 10^5 spores/mL in potato dextrose medium (Sigma Aldrich). Septoria assay plates were incubated for 4 days at 25°C, 180 rpm and 85% rH. Tebuconazole (Cayman Chemical Company, Ann Arbor, MI, USA) and amphotericin B (Sigma Aldrich) were used as positive control. Cell viability was evaluated via ATP quantification (BacTiter-Glo™, Promega, Walldorf, Germany) according to the manufacturer’s […]
# Mycobacterium tuberculosis ITM-M006710 H37Ra (ATCC 9431) was incubated for 14 days in Middlebrook 7H9 broth (from ThermoFisher Scientific, Walthman, MA, USA) supplemented with 5.6 µg/mL palmitic acid (Sigma Aldrich), 1 mg/mL casitone (ThermoFisher Scientific), 5mg/mL BSA, 4µg/mL catalase (Sigma Aldrich), and 0.2% glycerol at 37°C, 180 rpm and 85% rH. In a first step, the culture was diluted to McFarland standard of 1, before the final inoculum density of a 1 × 10^6 cells/mL was obtained by further dilution with freshly prepared medium. Individual 12-point dilution series of rifampicin, ampicillin and gentamicin (ranging from 64-0.03 µg/mL) were used as positive controls. The assay plates were incubated for 7 days under microaerophilic conditions at 37°C/5% CO2 (BD gaspak CO2 system) and read-out was done by ATP quantification (s. above).
# The MIC was defined as the minimum concentration where at least 85% growth inhibition relative to the negative control was measured. Relative inhibition for the microtiter turbidity tests (MTT) were […]
# rel. inh.% = 100 * [1- (AU sample - AU Low)/(AU High - AU Low)]
# AU: absorption unit at 600nm; Low: medium blank; High: negative control of maximal growth.
# Accordingly, the BacTiter-Glo™ (BTG) assays were calculated as rel. inh.% = 100 * [1- (LU sample - LU Low)/(LU High - LU Low)]
# AU: luminescence unit; Low: medium blank; High: negative control of maximal growth.
# For Mycobacterium tuberculosis ATCC 35801 a resazurin microtiter assay was carried out as previously described8 Briefly, assay plates were set up by transferring 10 µl of compounds form a 1:2-fold dilution series in distilled and sterile water to a 96-well plate. The final assay´s concentrations range from 0.39-100 µM and as positive and negative control 5 µM rifampicin and 0.5% DMSO were used. Subsequently a bacterial suspension with Mycobacterium tuberculosis with a final OD560 of 0.0003 was prepared in […]
# in vitro = details: human
# [5] = system: Mycobacterium tuberculosis ATCC 35801; assay: Resazurin microtiter assay, second-tier BSL-3; assay type: cell-based
# various Mtb strains = system: various Mtb strains; set-up: method as in PMID 27654337, PMID 29900893, PMID 36934122, PMID 32750539; details: cited from earlier work
# [6] = Staphylococcus aureus ATCC33592 (MRSA), MHII medium, turbidity at 600 nm, n=3
# [7] = Staphylococcus aureus, ATCC 33592 / MRSA
# [8] = Escherichia coli ATCC35218, MHII medium, turbidity at 600 nm, n=3, read-out: MIC Ec
# [9] = Escherichia coli, ATCC35218, read-out: MIC Ec
# [10] = Septoria tritici MUCL45408, PDB medium, 4 days, BacTiter-Glo, n=3
# [11] = Zymoseptoria tritici, MUCL45408, 96 h
# [12] = ATCC 33592 / MRSA, Staphylococcus aureus ATCC33592 (MRSA), MHII medium, turbidity at 600 nm, n=3
# [13] = Zymoseptoria tritici, 96 h, Septoria tritici MUCL45408, PDB medium, 4 days, BacTiter-Glo, n=3
Structure (SMILES),"MIC [1, 6] [µM]","MIC [2, 8] [µM]","MIC [3, 10] [µM]",MIC [4] [µM],"MIC [1, 12] [µM]","MIC [3, 13] [µM]",also measured
c1ccc(-c2nc(-c3cccs3)c3ccc4ccccc4n23)cc1 [5a],>196,>196,>196,> 196,–,–,"MIC [1, 7]: > 196 µM; MIC [2, 9]: > 196 µM; MIC [3, 11]: > 196 µM; MIC Mtb [4]: >196 µM"
c1ccc(-c2nc(-c3ccccc3)n3c2ccc2ccccc23)cc1 [5b],>200,>200,>200,> 200,> 200,> 200,MIC Mtb [4]: >200 µM
c1ccc(-c2nc(-c3ccccn3)c3ccc4ccccc4n23)cc1 [5c],>199,>199,>199,25,> 199,> 199,–
c1ccc(-c2nc(-c3nccc4ccccc34)c3ccc4ccccc4n23)cc1 [5d],>172,>172,>172,–,> 172,> 172,–
c1ccc(-c2nc(-c3ncccn3)c3ccc4ccccc4n23)cc1 [5e],>148,>148,>148,1,> 148,> 148,–
c1ccc(-c2ccc(-c3nc(-c4ccccc4)n4c3ccc3ccccc34)nc2)cc1 [5f],>136,>136,>136,34,> 136,> 136,–
c1ccc(-c2nc(-c3cc4ccccc4cn3)c3ccc4ccccc4n23)cc1 [5g],>144,>144,>144,≤ 2,> 144,> 144,"IC50 at 3 days (in vitro): > 100 µM; inhibition at 20 µM ([5]; ATCC35801, Mtb ATCC 35801, 20 μM): 82%; IC90 ([5]; ATCC35801, read-out: IC90 Mtb ATCC 35801, resazurin, 7 days + 24 h): 132 µM; IC50 ([5]; ATCC35801, resazurin, 7 days + 24 h, read-out: IC50 Mtb ATCC 35801): 86.5 µM; IC90 ([5]; ATCC35801, resazurin, 7 days + 24 h, read-out: IC90 Mtb ATCC 35801): 136 µM"
CN(C)c1ccccc1-c1nc(-c2ccccc2)n2c1ccc1ccccc12 [5h],>127,>127,>127,2,> 127,> 127,–
COc1ccccc1-c1nc(-c2ccccc2)n2c1ccc1ccccc12 [5i],>183,>183,>183,46,> 183,> 183,–
c1ccc(-c2nc(-c3ccccn3)n3c2ccc2ccccc23)nc1 [6a],>198,>198,>198,–,> 198,> 198,–
c1ccc(-c2nc(-c3ccccn3)n3c2ccc2ccccc23)cc1 [6b],>199,>199,>199,–,> 199,> 199,–
c1ccc(-c2nc(-c3cccc4ccccc34)n3c2ccc2ccccc23)nc1 [7a],>172,>172,>172,–,> 172,> 172,–
c1ccc(N(c2ccccc2)c2nc(-c3ccccn3)c3ccc4ccccc4n23)cc1 [8a],>155,>155,>155,> 155,–,–,"MIC [1, 7]: > 155 µM; MIC [2, 9]: > 155 µM; MIC [3, 11]: > 155 µM; MIC Mtb [4]: >155 µM"
"C[C@@H]1[C@H](O)[C@@H](C)/C=C/C=C/C=C/C=C/C=C/C=C/C=C/[C@H](O[C@@H]2O[C@H](C)[C@@H](O)[C@H](N)[C@@H]2O)C[C@@H]2O[C@](O)(C[C@@H](O)C[C@@H](O)[C@H](O)CC[C@@H](O)C[C@@H](O)CC(=O)O[C@H]1C)C[C@H](O)[C@H]2C(=O)O [AMB, amphotericin B, reference compound]",–,–,–,–,–,0.135,–
"CC1(C)S[C@@H]2[C@H](NC(=O)[C@H](N)c3ccccc3)C(=O)N2[C@H]1C(=O)O [AMP, ampicillin, reference compound]",–,–,–,184,–,–,–
"CC(=O)[O-].CC(=O)[O-].[Cu+2] [Cu(OAc)2, reference compound]",–,–,–,–,–,–,MIC Mtb [4]: 43 µM
"[Cl][Fe]([Cl])[Cl] [FeCl3, reference compound]",> 394,> 394,–,–,–,–,MIC Mtb [4]: > 394 µM
"CC(C)(C)C(O)(CCc1ccc(Cl)cc1)Cn1cncn1 (stereo not shown) [TEB, tebuconazole, reference compound]",–,–,–,–,–,–,"MIC [3, 11]: > 0.01 µM"
"[Cl-].[Cl-].[Zn+2] [ZnCl2, reference compound]",> 470,> 470,–,–,–,–,MIC Mtb [4]: 235 µM
NCC[C@H](O)C(=O)N[C@@H]1C[C@H](N)[C@@H](O[C@H]2O[C@H](CN)[C@@H](O)[C@H](O)[C@H]2O)[C@H](O)[C@H]1O[C@H]1O[C@H](CO)[C@@H](O)[C@H](N)[C@H]1O [amikacin],–,–,–,–,–,–,"MIC, literature reported values (various Mtb strains): 0.4 to 1.7 µM"
COc1nc2ccc(Br)cc2cc1[C@@H](c1ccccc1)[C@@](O)(CCN(C)C)c1cccc2ccccc12 [bendaquiline],–,–,–,–,–,–,"MIC, literature reported values (various Mtb strains): 0.03 to 1 µM"
CC[C@@H](CO)NCCN[C@@H](CC)CO [ethambutol],–,–,–,–,–,–,"MIC, literature reported values (various Mtb strains): 0.3 to 3 µM"
"CNC(C)C1CCC(N)C(OC2C(N)CC(N)C(OC3OCC(C)(O)C(NC)C3O)C2O)O1 (stereo not shown) [gentamicin, reference compound]",–,–,–,4,–,–,–
NNC(=O)c1ccncc1 [isoniazid],–,–,–,–,–,–,"MIC, literature reported values (various Mtb strains): 0.3 to 1.4 µM"
C[C@H]1COc2c(N3CCN(C)CC3)c(F)cc3c(=O)c(C(=O)O)cn1c23 [levofloxacin],–,–,–,–,–,–,"MIC, literature reported values (various Mtb strains): 0.8 to 1.4 µM"
"CO[C@H]1/C=C/O[C@@]2(C)Oc3c(C)c(O)c4c(O)c(c(/C=N/N5CCN(C)CC5)c(O)c4c3C2=O)NC(=O)/C(C)=C\C=C\[C@H](C)[C@H](O)[C@@H](C)[C@@H](O)[C@@H](C)[C@H](OC(C)=O)[C@@H]1C [rifampicin, reference compound]",–,5,–,0.07,> 78,–,–
